The results in this text go back to patent US9963674B2, “Age-modified cells and methods for making age-modified cells” (Memorial Sloan-Kettering Cancer Center, priority 2013, dated 2018).

What all share (type): cell-based, human
The subject of assay [1] is iPSC-derived mDA neurons. The assay can be described thus: RNA-seq gene expression analysis of iPSC-derived mDA neurons. As to conditions: progerin vs nuclear-GFP. The protocol: Cells were lysed directly in Trizol (Life Technologies). RNA was extracted using chloroform and ethanol precipitation and further cleaned using the RNeasy kit (Qiagen). Samples were stored at −80° C. until further processing. Total RNA was reverse transcribed (Superscript, Life Technologies) and 50 ng of RNA was used to template each RT-PCR reaction. For analysis of progerin expression levels, total RNA was hydrolyzed by 0.1× volume 5 M NaOH for 30 minutes at room temperature followed by 0.1× volume 5 M HCl (Scaffidi et al., Science 312:1059-1063 (2006)). Quantitative RT-PCR was performed using the Mastercycler RealPlex2 (Eppendorf, Hauppauge, N.Y.) platform following the manufacturer's instructions. Expression levels were normalized to cyclophillin A or 18S (housekeeping gene controls) as noted. For RNA-seq, total RNA was isolated from two independent experiments and processed by the MSKCC Genomic core facility.
Paired-end 75 base pair RNA-sequencing libraries were sequenced on an Illumina HiSeq2000. Reads were mapped to the human genome (Hg19) using STAR 2.3.0e (Dobin et al., Bioinformatics 29:15-21 (2013) with default mapping parameters and read counts were assessed using HTSeq. Principal component analysis was completed in R (v2.15.2) using the base “stats” package. Differentially expressed genes were identified with limma voom (Smyth, Stat Appl Genet Mol Biol 3:Article3 (2004)). A conservative approach was taken to account for low coverage in the sequencing library; a low read count filter was used such that samples contained non-zero read counts for a gene to be assessed in limma. Differentially expressed genes were identified using a fold change cut off of +/−2 and a Bonferroni adjusted p value of 0.05. A hypergeometric test was used to assess the similarity in response to progerin overexpression in young donor and old donor iPSC-derived mDA neurons. […]

Assay [2] has as its system iPSC-derived fibroblasts. The assay can be described thus: Progerin modified-RNA overexpression in iPSC-derived fibroblasts, age-associated markers (immunocytochemistry, MitoSOX). The note with it: modified-RNA 3 days; young and old donor iPSC-derived fibroblasts; vs nuclear-GFP. The protocol:
(§1) The following is a protocol for progerin overexpression using modified-RNA in differentiating or differentiated iPSC-derived cells: • 1. Prepare progerin-modified-RNA (methods of synthesis are described in Example 9) and deliver to iPSC-derived somatic cells using Lipofectamine RNAiMAX (Life Technologies) and incubate • a. For iPSC-derived fibroblasts repeat transfection for 3 consecutive days. • i. Note: Amount/duration combination optimizes treatment for minimal toxicity and earliest significant effects. • b. For iPSC-derived dopamine neurons repeat transfection for 5 consecutive days. • i. Note: Amount/duration combination optimizes treatment for minimal toxicity and earliest significant effects. • c. For other iPSC-derived somatic cells perform pilot experiments to determine amount and duration of progerin modified-RNA. • d. Analyze maturation and/or age-associated phenotypes. • Alternatively, expression of progerin can also be achieved through the use of temperature-sensitive Sendai virus expressing progerin. Additionally, expression of progerin can be achieved by using lentivirus.
(§2) For overexpression experiments, modified-RNA was thawed on ice and adjusted to a working concentration of 100 ng/μl. Per 100,000-cell transfection, 200 ng of modified-RNA was diluted up to 10 μl in Opti-MEM medium (Life Technologies), vortexed, and incubated at room temperature for 10 minutes. In a separate tube, 0.6 μl Lipofectamine RNAiMAX® (Life Technologies) was diluted up to 10 μl in Opti-MEM and incubated for the same timeframe. The Lipofectamine mixture was then transferred to the tube containing the modified-RNA mixture, vortexed and incubated for an additional 10 minutes. The transfection mixture was added dropwise to cells that had been pre-treated with 200 ng/ml of the interferon inhibitor B18R (eBioscience, San Diego, Calif.) for at least 4 hours prior to transfection.
(§3) After 4 hours at 37° C., the entire suspension was replaced with fresh medium supplemented with B18R. Transfection of iPSC-derived fibroblasts was performed starting on day 50 of differentiation and repeated on 2 consecutive days thereafter. iPSC-derived mDA neurons were transfected starting on day 65 or day 120 of differentiation and repeated on 4 consecutive days thereafter. The additional 2 days of transfections were done in order to establish a phenotype in iPSC-derived mDA neurons. Cells were analyzed one day after the final transfection.
(§4) Cells were fixed in 4% paraformaldehyde for 15 minutes. Blocking was performed in phosphate-buffered saline supplemented with 1% BSA, and 0.3% Triton X-100 for 30 minutes to 1 hour. Cells were stained overnight at 4° C. with primary antibodies diluted in blocking buffer. Following several washes, cells were stained with appropriate Alexa Fluor-labeled secondary antibodies (Molecular Probes, Carlsbad, Calif.) at 1:500 in blocking buffer for 30 minutes to 3 hours at room temperature. Cells were counterstained with 4′,6-diamidino-2-phenylindole (DAPI; Thermo Fisher, Rockford, Ill.) to visualize nuclei. Images were acquired with an Olympus IX81 microscope using a Hamamatsu ORCA CCD camera.
Images were acquired on an Operetta (PerkinElmer, Waltham, Mass.) using a 20× objective. Image processing was performed using Harmony high content analysis software (version 3.0).
Passage-matched cells were scored from three independent experiments. […] In these cases, 50 cells per condition were assessed for each independent experiment. […]

In assay [3] the test system is iPSC-derived mDA neurons. The assay can be described thus: Progerin modified-RNA overexpression in iPSC-derived mDA neurons, age-associated markers. The protocol: as §1, §2, §3, §4
Passage-matched cells were scored from three independent experiments. Where necessary due to bias against progerin-positive cells, images were processed using ImageJ software (version 1.43u, NIH). In these cases, 50 cells per condition were assessed for each independent experiment. Data are presented as mean±standard error of means (SEM). […]

Assay [4] has as its system iPSC-derived fibroblasts. The assay can be described thus: Senescence-activated beta-galactosidase staining in iPSC-derived fibroblasts. The note with it: iPSC-derived fibroblasts overexpressing progerin. The protocol: Senescence-activated beta-galactosidase was assessed using the staining kit from Cell Signaling according to the manufacturer's instructions. Positive cell staining was manually assessed (2 replicates, 50 cells each).

[5] abbreviates: modified-RNA 5 days, GFP-positive mDA neurons.

For the substance “GFP-progerin: progerin (truncated lamin A) fused to GFP, SEQ ID No. 2, overexpressed via modified-RNA or hSyn lentivirus”, in the assay on iPSC-derived mDA neurons [1], the BCAS1 expression entry is listed as “downregulation”, the SIRT4 expression result is “downregulation” and the ZNHT3 expression entry is recorded as “upregulation”. Besides, in the assay with iPSC-derived fibroblasts [2], the “DNA damage (γH2AX)” value is recorded as “formation of DNA double strand breaks”; the LAP2α expression result was “loss of LAP2α expression”; the “heterochromatin markers (H3K9me3 and HP1γ)” value is “loss of heterochromatin markers”; the “mitochondrial superoxide (MitoSOX)” value is reported as “increased mitochondrial dysfunction”. The nuclear morphology result with iPSC-derived fibroblasts [2] is recorded as “induced nuclear morphology abnormalities”. In addition, the “phenotype after acute 3-day overexpression” value in the assay with iPSC-derived mDA neurons [3] (modified-RNA 3 days, iPSC-derived mDA neurons) is “no obvious phenotype”. In the assay on iPSC-derived mDA neurons [3] (setting [5]), the “DNA damage (γH2AX foci)” value is “increased accumulation of DNA damage”; the “nuclear folding and blebbing” value is “enhanced nuclear folding and blebbing”. Further, in the assay on iPSC-derived mDA neurons [3] (modified-RNA 5 days, iPSC-mDA neurons, GFP-progerin vs nuclear-GFP), the “LAP2α, H3K9me3 and HP1γ immunocytochemistry” value is “no difference”. The mitochondrial superoxide entry in the assay on iPSC-derived mDA neurons [3] (modified-RNA 5 days, mDA neurons) was “signs of mitochondrial dysfunction”. The SA-β-Gal staining result with iPSC-derived fibroblasts [4] is reported as “increase in senescence-activated β galactosidase (SA-β-Gal) staining”.
